Patent US20260042731A1, “(2,4-DICHLOROPHENOXY)ACETIC ACID ANALOGS” (CORTEVA AGRISCIENCE LLC, priority 2022, published 2026)
Where two headings read alike, the source gives them in different places.

What was measured:
[1] = Volatility of compounds measured by thermogravimetric analysis (TGA); type: physicochemical
[2] = test system: glyphosate resistant Conyza canadensis (L.) (ERICA), horseweed; test: Postemergence herbicide evaluation, growth of Conyza canadensis (ERICA); type: in vivo; details: Erigeron canadensis, post-emergence, read-out: Ave. ERICA, percent reduction in plant size relative to the untreated control; for pest or weed control at 280 g/ha: 280 g ae/ha; for pest or weed control at 560 g/ha: 560 g ae/ha
[3] = test system: Abutilon theophrasti (ABUTH), velvetleaf; test: Postemergence herbicide evaluation, growth of Abutilon theophrasti (ABUTH); type: in vivo; details: Abutilon theophrasti, post-emergence, read-out: AVE. ABUTH, percent reduction in plant size relative to the untreated control; for pest or weed control at 280 g/ha: 280 g ae/ha; for pest or weed control at 560 g/ha: 560 g ae/ha
[4] = test system: weeds ABUTH, AMATA, AMBEL, CHEAL, ERICA; test: Postemergence herbicide evaluation, overall average % weed control (ABUTH, AMATA, AMBEL, CHEAL, ERICA); type: in vivo; details: post-emergence, read-out: Overall Ave % Weed Control; for pest or weed control at 280 g/ha: 280 g ae/ha; for pest or weed control at 560 g/ha: 560 g ae/ha
[5] = test system: Amaranthus rudis (AMATA), tall water hemp; test: Postemergence herbicide evaluation, growth of Amaranthus rudis (AMATA); type: in vivo; details: Amaranthus tuberculatus, post-emergence, read-out: Ave. AMATA, percent reduction in plant size relative to the untreated control; for pest or weed control at 280 g/ha: 280 g ae/ha; for pest or weed control at 560 g/ha: 560 g ae/ha
[6] = test system: Chenopodium album (CHEAL), common lambsquarters; test: Postemergence herbicide evaluation, growth of Chenopodium album (CHEAL); type: in vivo; details: Chenopodium album, post-emergence, read-out: Ave. CHEAL, percent reduction in plant size relative to the untreated control; for pest or weed control at 280 g/ha: 280 g ae/ha; for pest or weed control at 560 g/ha: 560 g ae/ha
[7] = test system: Ambrosia artemisiifolia (AMBEL), common ragweed; test: Postemergence herbicide evaluation, growth of Ambrosia artemisiifolia (AMBEL); type: in vivo; details: Ambrosia artemisiifolia, post-emergence, read-out: AVE. AMBEL, percent reduction in plant size relative to the untreated control; for pest or weed control at 280 g/ha: 280 g ae/ha; for pest or weed control at 560 g/ha: 560 g ae/ha

Row | Compound | TGA Data (rate of weight loss, volatility) [1] [µg/min] | pest or weed control at 280 g/ha ([2]; 168 h, 7 DAA) [%] | pest or weed control at 560 g/ha ([2]; 168 h, 7 DAA) [%] | pest or weed control at 280 g/ha ([2]; 336 h, 14 DAA) [%] | pest or weed control at 560 g/ha ([2]; 336 h, 14 DAA) [%] | pest or weed control at 280 g/ha ([2]; 504 h, 21 DAA) [%] | pest or weed control at 560 g/ha ([2]; 504 h, 21 DAA) [%] | pest or weed control at 280 g/ha ([3]; 168 h, 7 DAA) [%] | pest or weed control at 560 g/ha ([3]; 168 h, 7 DAA) [%] | pest or weed control at 280 g/ha ([3]; 336 h, 14 DAA) [%] | pest or weed control at 560 g/ha ([3]; 336 h, 14 DAA) [%] | pest or weed control at 280 g/ha ([3]; 504 h, 21 DAA) [%] | pest or weed control at 560 g/ha ([3]; 504 h, 21 DAA) [%] | pest or weed control at 280 g/ha ([4]; 168 h, 7 DAA) [%] | pest or weed control at 560 g/ha ([4]; 168 h, 7 DAA) [%] | pest or weed control at 280 g/ha ([4]; 336 h, 14 DAA) [%] | pest or weed control at 560 g/ha ([4]; 336 h, 14 DAA) [%] | pest or weed control at 280 g/ha ([4]; 504 h, 21 DAA) [%] | pest or weed control at 560 g/ha ([4]; 504 h, 21 DAA) [%] | pest or weed control at 280 g/ha ([5]; 168 h, 7 DAA) [%] | also measured
1 | N/C(=N\OC(=O)COc1ccc(Cl)cc1Cl)c1cccnc1 [Compound A4, N′-(2-(2,4-Dichlorophenoxy)acetoxy)nicotinimidamide] | 1 | 60 | 65 | 83 | 85 | 88 | 88 | 35 | 50 | 40 | 58 | 38 | 53 | 58 | 62 | 68 | 76 | 69 | 77 | 75 | pest or weed control at 560 g/ha ([5]; 168 h, 7 DAA): 60%; pest or weed control at 280 g/ha ([5]; 336 h, 14 DAA): 75%; pest or weed control at 560 g/ha ([5]; 336 h, 14 DAA): 73%; pest or weed control at 280 g/ha ([5]; 504 h, 21 DAA): 70%; pest or weed control at 560 g/ha ([5]; 504 h, 21 DAA): 75%; pest or weed control at 280 g/ha ([6]; 168 h, 7 DAA): 60%; pest or weed control at 560 g/ha ([6]; 168 h, 7 DAA): 68%; pest or weed control at 280 g/ha ([6]; 336 h, 14 DAA): 63%; pest or weed control at 560 g/ha ([6]; 336 h, 14 DAA): 75%; pest or weed control at 280 g/ha ([6]; 504 h, 21 DAA): 63%; pest or weed control at 560 g/ha ([6]; 504 h, 21 DAA): 83%; pest or weed control at 280 g/ha ([7]; 168 h, 7 DAA): 60%; pest or weed control at 560 g/ha ([7]; 168 h, 7 DAA): 68%; pest or weed control at 280 g/ha ([7]; 336 h, 14 DAA): 78%; pest or weed control at 560 g/ha ([7]; 336 h, 14 DAA): 88%; pest or weed control at 280 g/ha ([7]; 504 h, 21 DAA): 88%; pest or weed control at 560 g/ha ([7]; 504 h, 21 DAA): 85%
2 | O=C(COc1ccc(Cl)cc1Cl)Nc1cc[nH]n1 [Compound D21] | 0.07078 | 82.5 | 80 | 100 | 100 | 95 | 98 | 32.5 | 47.5 | 37.5 | 57.5 | 47.5 | 75 | 69 | 76.5 | 78.1 | 86.5 | 80.4 | 93.8 | 72.5 | pest or weed control at 560 g/ha ([5]; 168 h, 7 DAA): 90%; pest or weed control at 280 g/ha ([5]; 336 h, 14 DAA): 88%; pest or weed control at 560 g/ha ([5]; 336 h, 14 DAA): 90%; pest or weed control at 280 g/ha ([5]; 504 h, 21 DAA): 67.5%; pest or weed control at 560 g/ha ([5]; 504 h, 21 DAA): 100%; pest or weed control at 280 g/ha ([6]; 168 h, 7 DAA): 82.5%; pest or weed control at 560 g/ha ([6]; 168 h, 7 DAA): 80%; pest or weed control at 280 g/ha ([6]; 336 h, 14 DAA): 95%; pest or weed control at 560 g/ha ([6]; 336 h, 14 DAA): 92.5%; pest or weed control at 280 g/ha ([6]; 504 h, 21 DAA): 92.5%; pest or weed control at 560 g/ha ([6]; 504 h, 21 DAA): 96%; pest or weed control at 280 g/ha ([7]; 168 h, 7 DAA): 75%; pest or weed control at 560 g/ha ([7]; 168 h, 7 DAA): 85%; pest or weed control at 280 g/ha ([7]; 336 h, 14 DAA): 70%; pest or weed control at 560 g/ha ([7]; 336 h, 14 DAA): 92.5%; pest or weed control at 280 g/ha ([7]; 504 h, 21 DAA): 99.5%; pest or weed control at 560 g/ha ([7]; 504 h, 21 DAA): 100%
